{
  "source": "PubChem BioAssay (NCI)",
  "experiment_in_all_cases": "DTP human tumour cell line panel, 48 h",
  "key": {"[1]": {"system": "M19-MEL melanoma"}, "[2]": {"system": "A498 renal"}, "[3]": {"system": "SK-MEL-5 melanoma"}, "[4]": {"system": "SW-620 colon"}, "[5]": {"system": "SK-MEL-2 melanoma"}, "[6]": {"system": "HCC-2998 colon"}, "[7]": {"system": "IGROV1 ovarian"}, "[8]": {"system": "COLO 205 colon"}, "[9]": {"system": "SNB-19 CNS"}, "[10]": {"system": "A549 NSCLC"}, "[11]": {"system": "SF-295 CNS"}, "[12]": {"system": "HT29 colon"}, "[13]": {"system": "CCRF-CEM leukemia"}, "[14]": {"system": "HCT-15 colon"}, "[15]": {"system": "786-0 renal"}, "[16]": {"system": "SK-MEL-28 melanoma"}, "[17]": {"system": "DMS 114 small cell lung"}, "[18]": {"system": "SNB-78 CNS"}, "[19]": {"system": "CAKI-1 renal"}, "[20]": {"system": "RXF-631 renal"}, "[21]": {"system": "KM20L2 colon"}, "[22]": {"system": "K-562 leukemia"}, "[23]": {"system": "UACC-257 melanoma"}, "[24]": {"system": "MOLT-4 leukemia"}, "[25]": {"system": "NCI-H460 lung"}, "[26]": {"system": "M14 melanoma"}, "[27]": {"system": "OVCAR-4 ovarian"}, "[28]": {"system": "NCI-H522 lung"}, "[29]": {"system": "EKVX NSCLC"}, "[30]": {"system": "SK-OV-3 ovarian"}, "[31]": {"system": "OVCAR-5 ovarian"}, "[32]": {"system": "SN12C renal"}, "[33]": {"system": "UACC-62 melanoma"}, "[34]": {"system": "SF-539 CNS"}, "[35]": {"system": "HCT-116 colon"}, "[36]": {"system": "KM12 colon"}, "[37]": {"system": "HOP-62 NSCLC"}, "[38]": {"system": "LOX IMVI melanoma"}, "[39]": {"system": "XF 498 CNS"}, "[40]": {"system": "ACHN renal"}, "[41]": {"system": "SNB-75 CNS"}, "[42]": {"system": "OVCAR-3 ovarian"}, "[43]": {"system": "SF-268 CNS"}, "[44]": {"system": "TK-10 renal"}, "[45]": {"system": "HOP-18 NSCLC"}, "[46]": {"system": "NCI-H23 lung"}, "[47]": {"system": "OVCAR-8 ovarian"}, "[48]": {"system": "RXF 393 renal"}, "[49]": {"system": "MALME-3M melanoma"}, "[50]": {"system": "U251 CNS"}, "[51]": {"system": "NCI-H226 lung"}, "[52]": {"system": "LXFL 529 NSCLC"}},
  "note": "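Dose response: 5 concentrations. Exposure: 48 h. Format: 96-well plates. Endpoint: linear interpolation; highest concentration if not reached. TGI marks complete inhibition of growth.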",
  "data": [
    {"smiles": "CN(C)CCn1cnc2sc3ccccc3c21", "values": [
      {"measurement": "TGI", "setting": "[1]", "value": "> 100", "unit": "µM"},
      {"measurement": "TGI", "setting": "[2]", "value": "> 100", "unit": "µM"},
      {"measurement": "TGI", "setting": "[3]", "value": "> 100", "unit": "µM"},
      {"measurement": "TGI", "setting": "[4]", "value": "> 100", "unit": "µM"},
      {"measurement": "TGI", "setting": "[5]", "value": "> 100", "unit": "µM"},
      {"measurement": "TGI", "setting": "[6]", "value": "> 100", "unit": "µM"},
      {"measurement": "TGI", "setting": "[7]", "value": "> 100", "unit": "µM"},
      {"measurement": "TGI", "setting": "[8]", "value": "> 100", "unit": "µM"},
      {"measurement": "TGI", "setting": "[9]", "value": "> 100", "unit": "µM"},
      {"measurement": "TGI", "setting": "[10]", "value": "> 100", "unit": "µM"},
      {"measurement": "TGI", "setting": "[11]", "value": "> 100", "unit": "µM"},
      {"measurement": "TGI", "setting": "[12]", "value": "> 100", "unit": "µM"},
      {"measurement": "TGI", "setting": "[13]", "value": "> 100", "unit": "µM"},
      {"measurement": "TGI", "setting": "[14]", "value": "> 100", "unit": "µM"},
      {"measurement": "TGI", "setting": "[15]", "value": "> 100", "unit": "µM"},
      {"measurement": "TGI", "setting": "[16]", "value": "> 100", "unit": "µM"},
      {"measurement": "TGI", "setting": "[17]", "value": "> 100", "unit": "µM"},
      {"measurement": "TGI", "setting": "[18]", "value": "> 100", "unit": "µM"},
      {"measurement": "TGI", "setting": "[19]", "value": "> 100", "unit": "µM"},
      {"measurement": "TGI", "setting": "[20]", "value": "> 100", "unit": "µM"},
      {"measurement": "TGI", "setting": "[21]", "value": "> 100", "unit": "µM"},
      {"measurement": "TGI", "setting": "[22]", "value": "> 100", "unit": "µM"},
      {"measurement": "TGI", "setting": "[23]", "value": "> 100", "unit": "µM"},
      {"measurement": "TGI", "setting": "[24]", "value": "> 100", "unit": "µM"},
      {"measurement": "TGI", "setting": "[25]", "value": "> 100", "unit": "µM"},
      {"measurement": "TGI", "setting": "[26]", "value": "> 100", "unit": "µM"},
      {"measurement": "TGI", "setting": "[27]", "value": "> 100", "unit": "µM"},
      {"measurement": "TGI", "setting": "[28]", "value": "> 100", "unit": "µM"},
      {"measurement": "TGI", "setting": "[29]", "value": "> 100", "unit": "µM"},
      {"measurement": "TGI", "setting": "[30]", "value": "> 100", "unit": "µM"},
      {"measurement": "TGI", "setting": "[31]", "value": "> 100", "unit": "µM"},
      {"measurement": "TGI", "setting": "[32]", "value": "> 100", "unit": "µM"},
      {"measurement": "TGI", "setting": "[33]", "value": "> 100", "unit": "µM"},
      {"measurement": "TGI", "setting": "[34]", "value": "> 100", "unit": "µM"},
      {"measurement": "TGI", "setting": "[35]", "value": "> 100", "unit": "µM"},
      {"measurement": "TGI", "setting": "[36]", "value": "> 100", "unit": "µM"},
      {"measurement": "TGI", "setting": "[37]", "value": "> 100", "unit": "µM"},
      {"measurement": "TGI", "setting": "[38]", "value": "> 100", "unit": "µM"},
      {"measurement": "TGI", "setting": "[39]", "value": "> 100", "unit": "µM"},
      {"measurement": "TGI", "setting": "[40]", "value": "> 100", "unit": "µM"},
      {"measurement": "TGI", "setting": "[41]", "value": 86.6, "unit": "µM"},
      {"measurement": "TGI", "setting": "[42]", "value": "> 100", "unit": "µM"},
      {"measurement": "TGI", "setting": "[43]", "value": "> 100", "unit": "µM"},
      {"measurement": "TGI", "setting": "[44]", "value": "> 100", "unit": "µM"},
      {"measurement": "TGI", "setting": "[45]", "value": "> 100", "unit": "µM"},
      {"measurement": "TGI", "setting": "[46]", "value": "> 100", "unit": "µM"},
      {"measurement": "TGI", "setting": "[47]", "value": "> 100", "unit": "µM"},
      {"measurement": "TGI", "setting": "[48]", "value": "> 100", "unit": "µM"},
      {"measurement": "TGI", "setting": "[49]", "value": "> 100", "unit": "µM"},
      {"measurement": "TGI", "setting": "[50]", "value": "> 100", "unit": "µM"},
      {"measurement": "TGI", "setting": "[51]", "value": "> 100", "unit": "µM"},
      {"measurement": "TGI", "setting": "[52]", "value": "> 100", "unit": "µM"}
    ]}
  ]
}
